# How the values were obtained:
# [1] = system: MOLT-4; assay: NCI In Vitro Cell Line Screening (SRB); assay type: cell-based, human; conditions: MOLT-4, Leukemia, 48 h
# [2] = system: SR; assay: NCI In Vitro Cell Line Screening (SRB); assay type: cell-based; conditions: Leukemia, 48 h
# [3] = system: HOP-62; assay: NCI In Vitro Cell Line Screening (SRB); assay type: cell-based, human; conditions: HOP-62, Non-Small Cell Lung Cancer, 48 h
# [4] = system: NCI-H226; assay: NCI In Vitro Cell Line Screening (SRB); assay type: cell-based, human; conditions: NCI-H226, Non-Small Cell Lung Cancer, 48 h; for GI50 / LC50 (concentration killing 50% of cells): Homo sapiens
# [5] = system: NCI-H522; assay: NCI In Vitro Cell Line Screening (SRB); assay type: cell-based, human; conditions: NCI-H522, Non-Small Cell Lung Cancer, 48 h
# [6] = system: HCC-2998; assay: NCI In Vitro Cell Line Screening (SRB); assay type: cell-based; conditions: HCC-2998, Colon Cancer, 48 h; for GI50 / LC50 (lethal concentration, 50% cell kill): Homo sapiens
# [7] = system: HCT-116; assay: NCI In Vitro Cell Line Screening (SRB); assay type: cell-based, human; conditions: HCT-116, Colon Cancer, 48 h
# [8] = system: HCT-15; assay: NCI In Vitro Cell Line Screening (SRB); assay type: cell-based, human; conditions: HCT-15, Colon Cancer, 48 h; for GI50 / CC50: Homo sapiens; for CC50: read-out: LC50 (the source's name)
# [9] = system: HT29; assay: NCI In Vitro Cell Line Screening (SRB); assay type: cell-based; conditions: HT29, Colon Cancer, 48 h; for GI50 / CC50: Homo sapiens, HT-29; for CC50: read-out: LC50 (the source's name)
# [10] = system: SF-295; assay: NCI In Vitro Cell Line Screening (SRB); assay type: cell-based, human; conditions: SF-295, CNS Cancer, 48 h; for GI50 / CC50: Homo sapiens; for CC50: read-out: LC50 (the source's name)
# [11] = system: LOX IMVI; assay: NCI In Vitro Cell Line Screening (SRB); assay type: cell-based, human; conditions: Melanoma, 48 h; for GI50 / LC50: Homo sapiens
# [12] = system: SK-MEL-5; assay: NCI In Vitro Cell Line Screening (SRB); assay type: cell-based, human; conditions: SK-MEL-5, Melanoma, 48 h
# [13] = system: IGROV1; assay: NCI In Vitro Cell Line Screening (SRB); assay type: cell-based; conditions: IGROV1, Ovarian Cancer, 48 h; for CC50: read-out: LC50 (the source's name)
# [14] = system: OVCAR-4; assay: NCI In Vitro Cell Line Screening (SRB); assay type: cell-based, human; conditions: OVCAR-4, Ovarian Cancer, 48 h; for GI50 / CC50: Homo sapiens; for CC50: read-out: LC50 (the source's name)
# [15] = system: 786-0; assay: NCI In Vitro Cell Line Screening (SRB); assay type: cell-based, human; conditions: 786-0, Renal Cancer, 48 h; for GI50 / CC50: Homo sapiens; for CC50: read-out: LC50 (the source's name)
# [16] = system: SN12C; assay: NCI In Vitro Cell Line Screening (SRB); assay type: cell-based, human; conditions: Renal Cancer, 48 h; for GI50 / CC50: Homo sapiens; for CC50: read-out: LC50 (the source's name)
# [17] = system: UO-31; assay: NCI In Vitro Cell Line Screening (SRB); assay type: cell-based, human; conditions: UO-31, Renal Cancer, 48 h; for GI50 / CC50: Homo sapiens; for CC50: read-out: LC50 (the source's name)
# [18] = system: NCI/ADR-RES; assay: NCI In Vitro Cell Line Screening (SRB); assay type: cell-based, human; conditions: Breast Cancer, 48 h; for GI50 / CC50: Homo sapiens; for CC50: read-out: LC50 (the source's name)
# [19] = system: T-47D; assay: NCI In Vitro Cell Line Screening (SRB); assay type: cell-based, human; conditions: Breast Cancer, 48 h
# [20] = system: 5 Leukemia and 5 Colon Cancer Cell Lines; assay: Cell viability by XTT, cell line panel; assay type: cell-based; conditions: for Range (Percentage of Control over the same 10 cell lines): 10 μM, lowest to highest of the ten cell lines; for viability at 10 µM: average of the ten Percentage of Control values, read-out: ARF (Average Response Factor, Average Percentage of Control)
# Experimental: Compounds were solubilized at […] in DMSO and were stored at −20° C. Test compounds were initially tested at a single concentration of 10 μM and a subset of test compounds were further tested in selected cell lines using a six concentration dose response curve.
# Cell Preparation Cancer cell lines were passaged in T-75 flasks prior to use in the assay in cell culture medium recommended by the ATCC (American Type Culture Collection; Table 6). On the day preceding the assay, the cells were split 1:2 to assure they were in an exponential growth phase at the time of compound treatment. Total cell and viability quantification was performed using a hemocytometer and Trypan Blue dye exclusion. […] The cells were resuspended at the appropriate cell per mL (Table 6) in tissue culture medium and added to the microtitre plates in a volume of 100 μL. Colon cell lines were incubated overnight at 37° C./5% CO2 to allow for cell adherence to the plates.
# Plate Format: Each plate contains cell control wells (cells only), drug calorimetric control wells (drug only) as well as experimental wells (drug plus cells). Samples were tested in triplicate at a concentration of 10 μM and five half-logarithmic dilutions.
# Cell Viability by XTT: Following incubation at 37° C. in a 5% CO2 incubator for four days, the test plates were stained with the tetrazolium dye XTT (2,3-bis(2-methoxy-4-nitro-5-sulfophenyl)-5-[(phenylamino)carbonyl]-2H-tetrazolium hydroxide). XTT-tetrazolium was metabolized by the mitochondrial enzymes of metabolically active cells to a soluble formazan product. XTT solution was prepared daily as a stock of 1 mg/mL in RPMI1640. Phenazine methosulfate (PMS) solution was prepared at 0.15 mg/mL in phosphate buffered saline (PBS) and stored in the dark at −20° C. XTT/PMS stock was prepared immediately before use by adding 40 μL of PMS per mL of XTT solution. Fifty (50) microlitres of XTT/PMS was added to each well of the plate and the plate was reincubated for 4 hours at 37° C. Plates were sealed with adhesive plate sealers and shaken gently or inverted several times to mix the soluble formazan product and the plate was read spectrophotometrically at 450/650 nm with a Molecular Devices Vmax plate reader. […] An Average Response Factor (ARF) was calculated for each compound by averaging the ten Percentage of Control values for the cell lines. […] Deviations below 100% control indicate activity. The concentration of each tested compound is 10 μM.
# [21] = Homo sapiens, read-out: LC50 (the source's name)
smiles,measurement,setting,value
"CC(C)(C)c1ccc(NC(=O)[C@H](CCCCN)NC(=O)OCC2c3ccccc3-c3ccccc32)cc1 [Compound 105, (S)-[5-AMINO-1-(4-TERT-BUTYL-PHENYLCARBAMOYL)-PENTYL]-CARBAMIC ACID 9H-FLUOREN-9-YLMETHYL ESTER]",GI50,[1]; Homo sapiens,1.66 µM
same,TGI,[1],3.42 µM
same,GI50,[2]; Homo sapiens,0.403 µM
same,CC50,[2]; [21],> 100 µM
same,TGI,[3],3.87 µM
same,GI50,[3]; Homo sapiens,2.18 µM
same,CC50,[3]; [21],6.85 µM
same,GI50,[4],22.2 µM
same,LC50 (concentration killing 50% of cells),[4],89.2 µM
same,TGI,[4],44.4 µM
same,GI50,[5]; Homo sapiens,2.1 µM
same,TGI,[5],4.43 µM
same,TGI,[6],2.88 µM
same,GI50,[6],1.39 µM
same,"LC50 (lethal concentration, 50% cell kill)",[6],5.96 µM
same,TGI,[7],3.35 µM
same,GI50,[7]; Homo sapiens,1.53 µM
same,LC50 (concentration killing 50% of cells),[7]; Homo sapiens,7.3 µM
same,TGI,[8],24.4 µM
same,GI50,[8],11.1 µM
same,CC50,[8],53.9 µM
same,GI50,[9],0.733 µM
same,CC50,[9],> 100 µM
same,GI50,[10],3.74 µM
same,CC50,[10],65.3 µM
same,TGI,[10],19.0 µM
same,GI50,[11],1.81 µM
same,LC50,[11],6.42 µM
same,TGI,[11],3.41 µM
same,GI50,[12]; Homo sapiens,1.54 µM
same,TGI,[12],2.94 µM
same,CC50,"[13]; Homo sapiens, IGROV-1",6.97 µM
same,TGI,[13],3.11 µM
same,GI50,[14],1.77 µM
same,CC50,[14],> 100 µM
same,TGI,[14],4.25 µM
same,TGI,[15],2.66 µM
same,GI50,[15],1.33 µM
same,CC50,[15],5.3 µM
same,GI50,[16],13.8 µM
same,CC50,[16],62.9 µM
same,TGI,[16],29.5 µM
same,GI50,[17],1.58 µM
same,CC50,[17],6.76 µM
same,TGI,[17],3.27 µM
same,TGI,[18],1.1 µM
same,GI50,[18],< 0.01 µM
same,CC50,[18],30.5 µM
same,TGI,[19],3.08 µM
same,GI50,"[19]; Homo sapiens, T47D",1.45 µM
same,Range (Percentage of Control over the same 10 cell lines),[20],0 to 110.8%
same,viability at 10 µM,[20],53.4%
"Cc1ccc(NC(=O)[C@@H](CCCCN)NC(=O)Nc2ccc3c(c2)Cc2ccccc2-3)cc1 [Compound 173, (R)-6-AMINO-2-[3-(9H-FLUOREN-2-YL)-UREIDO]-HEXANOIC ACID P-TOLYLAMIDE]",GI50,[1]; Homo sapiens,1.93 µM
same,CC50,[1]; [21],17.5 µM
same,TGI,[1],4.43 µM
same,GI50,[2]; Homo sapiens,1.3 µM
same,TGI,[2],3.41 µM
same,TGI,[3],3.79 µM
same,GI50,[3]; Homo sapiens,1.88 µM
same,GI50,[4],1.62 µM
same,LC50 (concentration killing 50% of cells),[4],45.6 µM
same,TGI,[4],9.56 µM
same,GI50,[5]; Homo sapiens,4.15 µM
same,LC50,[5]; Homo sapiens,> 100 µM
same,TGI,[5],23.5 µM
same,TGI,[6],4.88 µM
same,GI50,[6],2.22 µM
same,"LC50 (lethal concentration, 50% cell kill)",[6],17.5 µM
same,TGI,[7],4.40 µM
same,GI50,[7]; Homo sapiens,2.16 µM
same,TGI,[8],87.8 µM
same,GI50,[8],23.9 µM
same,CC50,[8],> 100 µM
same,TGI,[9],>100 µM
same,GI50,[9],3.64 µM
same,CC50,[9],> 100 µM
same,GI50,[10],0.341 µM
same,CC50,[10],5.17 µM
same,TGI,[10],2.07 µM
same,GI50,[11],1.4 µM
same,LC50,[11],5.2 µM
same,TGI,[11],2.70 µM
same,GI50,[12]; Homo sapiens,1.03 µM
same,CC50,[12]; [21],68.3 µM
same,TGI,[12],26.5 µM
same,GI50,"[13]; Homo sapiens, IGROV-1",3.56 µM
same,CC50,"[13]; Homo sapiens, IGROV-1",81 µM
same,TGI,[13],17.9 µM
same,GI50,[14],9.3 µM
same,CC50,[14],> 100 µM
same,TGI,[14],68.8 µM
same,TGI,[15],11.1 µM
same,GI50,[15],3.42 µM
same,CC50,[15],91.1 µM
same,GI50,[16],1.17 µM
same,CC50,[16],5 µM
same,TGI,[16],2.41 µM
same,GI50,[17],> 100 µM
same,CC50,[17],> 100 µM
same,TGI,[17],>100 µM
same,TGI,[18],>100 µM
same,GI50,[18],> 100 µM
same,CC50,[18],> 100 µM
same,TGI,[19],3.78 µM
same,GI50,"[19]; Homo sapiens, T47D",1.7 µM
same,CC50,"[19]; Homo sapiens, T47D, read-out: LC50 (the source's name)",8.41 µM
same,Range (Percentage of Control over the same 10 cell lines),[20],4.3 to 108.6%
same,viability at 10 µM,[20],76.8%
